From patent US8148391B2 (Cephalon, Inc., priority 2006, dated 2012)
Like-named read-outs stand apart in the source and are kept apart here. Blank lines part the entries; values can stand above or below the compound they belong to.

Key:
[1] = target: T1, baculovirus-expressed ALK (Homo sapiens, UniProt Q9UM73); test: ALK Kinase Assay (ELISA-type, time-resolved fluorescence); assay type: biochemical
T1 construct: host or cells: baculovirus expression system
Outline: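 Wells were coated with phospholipase C-γ at 10 μg/mL in Tris-buffered saline. Adding 30 ng/ml enzyme started the reaction, which ran at 37° C for 15 minutes before Eu-N1 PT66 antibody detection. Percent inhibition versus log10 concentration gave IC50 by variable-slope fit.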

[2] = target: T2, c-Met (cytoplasmic domain) (Homo sapiens, UniProt P08581); test: c-Met Kinase Assay (same methods as for ALK, with modifications); assay type: biochemical
T2 construct: 10 ng/mL c-Met (cytoplasmic domain, Invitrogen Corporation #PV3143); purchased Invitrogen Corporation PV3143
T2 sequence (P08581 956-1390 limits assumed): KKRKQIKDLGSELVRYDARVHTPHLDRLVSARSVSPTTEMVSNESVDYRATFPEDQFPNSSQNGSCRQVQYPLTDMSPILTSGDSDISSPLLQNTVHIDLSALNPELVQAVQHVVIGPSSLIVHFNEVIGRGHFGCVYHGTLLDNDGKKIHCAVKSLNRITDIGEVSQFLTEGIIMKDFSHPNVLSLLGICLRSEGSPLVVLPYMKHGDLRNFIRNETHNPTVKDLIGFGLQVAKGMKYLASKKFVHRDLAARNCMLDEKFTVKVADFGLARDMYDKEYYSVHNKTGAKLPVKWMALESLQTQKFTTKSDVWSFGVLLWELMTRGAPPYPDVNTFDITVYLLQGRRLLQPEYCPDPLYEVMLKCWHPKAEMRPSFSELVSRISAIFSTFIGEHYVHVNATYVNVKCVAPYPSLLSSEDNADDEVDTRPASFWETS
Outline: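 Steps: coat wells with PLC-γ (10 μg/mL, Tris-buffered saline); add 10 ng/mL c-Met cytoplasmic domain to initiate; incubate 15 min, 37° C; detect phosphoproduct via Eu-N1 PT66 antibody.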

[3] = 1 μM ATP (Km level), read-out: ALK Activity (ALK Kinase Inhibition, IC50)
[4] = 1 μM ATP (Km level), read-out: cMet Activity (c-Met Kinase Inhibition, IC50)
[5] = ALK kinase inhibition, 1 μM ATP, read-out: ALK Activity
[6] = c-Met kinase inhibition, 1 μM ATP, read-out: cMet Activity
[7] = ALK kinase inhibition, 1 μM ATP (Km level), read-out: ALK Activity
[8] = c-Met kinase inhibition, 1 μM ATP (Km level), read-out: cMet Activity
[9] = 1 μM ATP (Km level), 30 ng/ml ALK, 37° C., 15 minutes, read-out: ALK Activity (ALK kinase inhibition, IC50 class)
[10] = 1 μM ATP (Km level), 10 ng/mL c-Met, read-out: cMet Activity (c-Met kinase inhibition, IC50 class)

T1 sequence (Q9UM73 19-1620): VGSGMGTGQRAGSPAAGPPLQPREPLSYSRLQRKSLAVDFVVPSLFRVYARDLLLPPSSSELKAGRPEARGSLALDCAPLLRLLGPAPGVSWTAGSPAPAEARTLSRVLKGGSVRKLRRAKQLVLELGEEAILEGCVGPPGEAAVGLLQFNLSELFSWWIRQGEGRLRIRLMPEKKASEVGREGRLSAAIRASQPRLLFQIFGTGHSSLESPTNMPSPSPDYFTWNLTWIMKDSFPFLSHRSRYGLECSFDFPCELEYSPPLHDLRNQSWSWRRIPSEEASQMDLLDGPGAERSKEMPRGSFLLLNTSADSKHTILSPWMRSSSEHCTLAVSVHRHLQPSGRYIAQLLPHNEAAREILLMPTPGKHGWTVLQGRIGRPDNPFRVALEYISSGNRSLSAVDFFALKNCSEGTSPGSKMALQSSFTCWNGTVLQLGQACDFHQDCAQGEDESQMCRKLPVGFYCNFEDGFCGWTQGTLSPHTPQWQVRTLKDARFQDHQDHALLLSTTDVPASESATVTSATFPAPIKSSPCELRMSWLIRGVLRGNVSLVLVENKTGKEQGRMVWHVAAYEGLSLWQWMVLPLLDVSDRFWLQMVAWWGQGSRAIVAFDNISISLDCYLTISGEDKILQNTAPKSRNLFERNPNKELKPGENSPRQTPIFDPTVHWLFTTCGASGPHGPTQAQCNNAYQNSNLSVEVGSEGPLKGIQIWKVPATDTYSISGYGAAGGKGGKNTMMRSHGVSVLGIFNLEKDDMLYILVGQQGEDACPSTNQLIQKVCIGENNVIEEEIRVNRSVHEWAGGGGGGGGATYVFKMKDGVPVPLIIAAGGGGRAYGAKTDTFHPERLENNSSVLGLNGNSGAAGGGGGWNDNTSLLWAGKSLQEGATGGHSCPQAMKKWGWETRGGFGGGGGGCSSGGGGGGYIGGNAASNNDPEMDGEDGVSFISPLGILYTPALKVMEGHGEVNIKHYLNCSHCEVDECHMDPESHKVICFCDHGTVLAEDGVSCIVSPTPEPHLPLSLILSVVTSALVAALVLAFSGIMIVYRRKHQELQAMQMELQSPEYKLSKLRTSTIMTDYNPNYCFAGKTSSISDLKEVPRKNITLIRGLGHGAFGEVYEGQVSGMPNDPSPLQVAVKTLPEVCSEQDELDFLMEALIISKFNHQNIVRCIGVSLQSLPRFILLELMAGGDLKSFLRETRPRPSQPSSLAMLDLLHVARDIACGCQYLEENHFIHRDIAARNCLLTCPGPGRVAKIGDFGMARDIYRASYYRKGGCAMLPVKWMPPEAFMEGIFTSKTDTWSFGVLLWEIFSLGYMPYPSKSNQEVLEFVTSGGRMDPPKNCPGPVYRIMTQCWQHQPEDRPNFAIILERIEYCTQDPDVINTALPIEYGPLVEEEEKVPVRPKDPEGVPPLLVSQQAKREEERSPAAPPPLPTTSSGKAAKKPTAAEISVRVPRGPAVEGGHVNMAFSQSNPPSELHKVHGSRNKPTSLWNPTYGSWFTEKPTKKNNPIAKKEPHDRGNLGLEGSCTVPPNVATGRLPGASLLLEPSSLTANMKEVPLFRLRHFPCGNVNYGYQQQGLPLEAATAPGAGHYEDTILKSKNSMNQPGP

SMILES: CCN1CC(=O)N(C)c2cc(Nc3ncc(Cl)c(Nc4ccc(OC)c(CNCCO)c4)n3)c(OC)cc2C1 [Example 749, 8-(5-Chloro-4-{3-[(2-hydroxy-ethylamino)-methyl]-4-methoxy-phenylamino}-pyrimidin-2-ylamino)-4-ethyl-7-methoxy-1-methyl-1,3,4,5-tetrahydro-benzo[e][1,4]diazepin-2-one]
IC50 [1, 3]: 0.1 to 1 µM | IC50 [2, 4]: > 10 µM

SMILES: CNC(=O)c1ccccc1Nc1nc(Nc2cccc3c2N(C)CCNC3=O)ncc1Cl [Example 544, 2-[5-Chloro-2-(1-methyl-5-oxo-2,3,4,5-tetrahydro-1H-benzo[e][1,4]diazepin-9-ylamino)pyrimidin-4-ylamino]-N-methyl-benzamide]
IC50 [1, 3]: < 0.1 µM | IC50 [2, 4]: > 10 µM

SMILES: CCN1C(=O)CCC(C)(C)c2ccc(Nc3ncc(Cl)c(Nc4ccc(N5CCOCC5)cc4S(=O)(=O)N(C)C)n3)cc21 [Example 851, 2-[5-Chloro-2-(1-ethyl-5,5-dimethyl-2-oxo-2,3,4,5-tetrahydro-1H-benzo[b]azepin-8-ylamino)-pyrimidin-4-ylamino]-N,N-dimethyl-5-morpholin-4-yl-benzenesulfonamide]
IC50 [1, 3]: < 0.1 µM | IC50 [2, 4]: 1 to 10 µM

SMILES: CN1C(=O)OCCc2cc(Nc3ncc(Cl)c(Nc4c(F)cccc4OCCO)n3)ccc21 [Example 1732, 2-{5-Chloro-4-[2-fluoro-6-(2-hydroxy-ethoxy)-phenylamino]-pyrimidin-2-ylamino}-5-methyl-8,9-dihydro-5H-7-oxa-5-aza-benzocyclohepten-6-one]
IC50 [1, 5]: < 0.1 µM | IC50 [2, 6]: < 0.1 µM

SMILES: COCCN1CCc2ccc(Nc3ncc(Cl)c(Nc4ccccc4-n4cccn4)n3)cc2CC1 [Example 316, 5-Chloro-N*2*-[3-(2-methoxy-ethyl)-2,3,4,5-tetrahydro-1H-benzo[d]azepin-7-yl]-N*4*-(2-pyrazol-1-yl-phenyl)-pyrimidine-2,4-diamine]
IC50 [1, 7]: < 0.1 µM | IC50 [2, 8]: 0.1 to 1 µM

SMILES: COCCNC1CCc2ccc(Nc3ncc(Cl)c(Nc4ccccc4S(=O)(=O)N4CCC(O)C4)n3)c(OC)c2CC1 (stereo not shown) [Example 695, 1-(2-{5-Chloro-2-[1-methoxy-7-(2-methoxy-ethylamino)-6,7,8,9-tetrahydro-5H-benzocyclohepten-2-ylamino]-pyrimidin-4-ylamino}-benzenesulfonyl)-pyrrolidin-3-ol]
IC50 [1, 3]: < 0.1 µM | IC50 [2, 4]: 1 to 10 µM

SMILES: CC1(C)CCCOc2c(Nc3ncc(Cl)c(Nc4ccccc4C(=O)NCCC#N)n3)cccc21 [Example 877, 2-[5-Chloro-2-(5,5-dimethyl-2,3,4,5-tetrahydro-benzo[b]oxepin-9-ylamino)-pyrimidin-4-ylamino]-N-(2-cyano-ethyl)-benzamide]
IC50 [1, 3]: 0.1 to 1 µM | IC50 [2, 4]: > 10 µM

SMILES: COCCN1CCc2ccc(Nc3ncc(Cl)c(Oc4c(F)cccc4OC4CCOC4)n3)cc2CC1 (stereo not shown) [Example 1308, {5-Chloro-4-[2-fluoro-6-(tetrahydro-furan-3-yloxy)-phenoxy]-pyrimidin-2-yl}-[3-(2-methoxy-ethyl)-2,3,4,5-tetrahydro-1H-3-benzazepin-7-yl]-amine]
IC50 [1, 9]: 0.1 to 1 µM | IC50 [2, 10]: 1 to 10 µM

SMILES: COc1cc2c(cc1Nc1ncc(Cl)c(Nc3ccccc3-n3cccn3)n1)CCC(N1CCOCC1)CC2 (stereo not shown) [Example 1052, 5-Chloro-N*2*-(3-methoxy-7-morpholin-4-yl-6,7,8,9-tetrahydro-5H-benzocyclohepten-2-yl)-N*4*-(2-pyrazol-1-yl-phenyl)-pyrimidine-2,4-diamine]
IC50 [1, 9]: < 0.1 µM | IC50 [2, 10]: > 10 µM

SMILES: CNS(=O)(=O)c1ccccc1Nc1nc(Nc2cccc3c2C(=O)NCCN3)ncc1Cl [Example 171, 2-[5-Chloro-2-(5-oxo-2,3,4,5-tetrahydro-1H-benzo[e][1,4]diazepin-6-ylamino)pyrimidin-4-ylamino]-N-methyl-benzenesulfonamide]
IC50 [1, 7]: 1 to 10 µM | IC50 [2, 8]: 1 to 10 µM

Next, values leading:

IC50 [1, 5]: > 10 µM | IC50 [2, 6]: 0.1 to 1 µM
SMILES: CNC(=O)c1cccc(OC(F)(F)F)c1Nc1nc(Nc2ccc3c(c2)CCOC(=O)N3C)ncc1Cl [Example 1773, 2-[5-Chloro-2-(5-methyl-6-oxo-5,6,8,9-tetrahydro-7-oxa-5-aza-benzocyclohepten-2-ylamino)-pyrimidin-4-ylamino]-N-methyl-3-trifluoromethoxy-benzamide]

IC50 [1, 5]: > 10 µM | IC50 [2, 6]: > 10 µM
SMILES: O=C1CCCc2ccc(Nc3ncc(Cl)c(Nc4ccccc4OCCN4CCOCC4)n3)cc2N1 [Example 1465, 8-{5-Chloro-4-[2-(2-morpholin-4-yl-ethoxy)-phenylamino]-pyrimidin-2-ylamino}-1,3,4,5-tetrahydro-benzo[b]azepin-2-one]

IC50 [1, 7]: < 0.1 µM | IC50 [2, 8]: < 0.1 µM
SMILES: CNS(=O)(=O)c1ccccc1Nc1nc(Nc2ccc3c(c2)COCCN3C)ncc1Cl [Example 17, 2-[5-Chloro-2-(1-methyl-1,2,3,5-tetrahydro-benzo[e][1,4]oxazepin-7-ylamino)-pyrimidin-4-ylamino]-N-methyl-benzenesulfonamide]

IC50 [1, 9]: 0.1 to 1 µM | IC50 [2, 10]: < 0.1 µM
SMILES: CN1C(=O)OCCc2cc(Nc3ncc(Cl)c(Nc4c(F)cccc4OC4CCOC4)n3)ccc21 (stereo not shown) [Example 1300, 2-{5-Chloro-4-[2-fluoro-6-(tetrahydro-furan-3-yloxy)-phenylamino]-pyrimidin-2-ylamino}-5-methyl-8,9-dihydro-5H-7-oxa-5-aza-benzocyclohepten-6-one]

IC50 [1, 3]: < 0.1 µM | IC50 [2, 4]: > 10 µM
SMILES: COc1c(Nc2ncc(Cl)c(N[C@H]3[C@@H](C(N)=O)[C@@H]4C=C[C@H]3C4)n2)ccc2c1CCC(NCCO)CC2 (single isomer, unassigned) [Example 696]

IC50 [1, 5]: 0.1 to 1 µM | IC50 [2, 6]: < 0.1 µM
SMILES: CNC(=O)c1cccc(F)c1Nc1nc(Nc2ccc3c(c2)NCCCC3(C)C)ncc1Cl [Example 1611, 2-[5-Chloro-2-(5,5-dimethyl-2,3,4,5-tetrahydro-1H-benzo[b]azepin-8-ylamino)-pyrimidin-4-ylamino]-3-fluoro-N-methyl-benzamide]

IC50 [1, 5]: < 0.1 µM | IC50 [2, 6]: > 10 µM
SMILES: COc1cc2c(cc1Nc1ncc(Cl)c(N[C@@H]3CCCC[C@H]3NS(C)(=O)=O)n1)CCN(CC(=O)N1CCOCC1)CC2 [Example 1528, N-((1R,2R)-2-{5-Chloro-2-[8-methoxy-3-(2-morpholin-4-yl-2-oxo-ethyl)-2,3,4,5-tetrahydro-1H-3-benzazepin-7-ylamino]-pyrimidin-4-ylamino}-cyclohexyl)-methanesulfonamide]

IC50 [1, 9]: < 0.1 µM | IC50 [2, 10]: > 10 µM
SMILES: CCN1C(=O)[C@@H](N2CCOCC2)CCc2c1ccc(Nc1ncc(Cl)c(N[C@H]3[C@@H](C(N)=O)[C@@H]4C=C[C@H]3C4)n1)c2OC (single isomer, unassigned) [Example 1345]

IC50 [1, 7]: < 0.1 µM | IC50 [2, 8]: 1 to 10 µM
SMILES: CCN1CCc2ccc(Nc3ncc(Cl)c(Nc4cccc(N5CCOCC5)c4)n3)cc2CC1 [Example 444, 5-Chloro-N*2*-(3-ethyl-2,3,4,5-tetrahydro-1H-benzo[d]azepin-7-yl)-N*4*-(3-morpholin-4-yl-phenyl)-pyrimidine-2,4-diamine]

IC50 [1, 7]: < 0.1 µM | IC50 [2, 8]: 1 to 10 µM
SMILES: CS(=O)(=O)N[C@@H]1CCCC[C@H]1Nc1nc(Nc2ccc3c(c2)CCN(C[C@H](O)C(F)(F)F)CC3)ncc1Cl [Example 329, N-((1R,2R)-2-{5-Chloro-2-[3-((S)-3,3,3-trifluoro-2-hydroxy-propyl)-2,3,4,5-tetrahydro-1H-benzo[d]azepin-7-ylamino]-pyrimidin-4-ylamino}-cyclohexyl)-methanesulfonamide]
